Measurements: ChEMBL document CHEMBL3085759, “Structure-activity relationship (SAR) and preliminary mode of action studies of 3-substituted benzylthioquinolinium iodide as anti-opportunistic infection agents” (Eur J Med Chem, 2013)

Key:
[1] = test system: Mycobacterium intracellulare; experiment: Antimicrobial activity against Mycobacterium intracellulare ATCC 23068 by Alamar blue method; format: functional, organism-based
Staphylococcus aureus [2] = experiment: Antimicrobial activity against methicillin-resistant Staphylococcus aureus ATCC 33591 by Alamar blue method; format: functional, organism-based
Staphylococcus aureus [3] = experiment: Antimicrobial activity against Staphylococcus aureus ATCC 29213 by Alamar blue method; format: functional, organism-based; conditions: Staphylococcus aureus, ATCC 29213; for IC50: read-out: IC50
Nakaseomyces glabratus = experiment: Antimicrobial activity against Candida glabrata by Alamar blue method; format: functional, organism-based
Pichia kudriavzevii = experiment: Antimicrobial activity against Candida krusei ATCC 6258 by Alamar blue method; format: functional, organism-based
Vero = experiment: Cytotoxicity against african green monkey Vero cells at 10 ug/ml after 48 hrs by Neutral Red dye assay; format: cell-based; conditions: chlorocebus sabaeus
Aspergillus fumigatus = experiment: Antimicrobial activity against Aspergillus fumigatus ATCC 204305 by Alamar blue method; format: functional, organism-based
Cryptococcus neoformans = experiment: Antimicrobial activity against Cryptococcus neoformans ATCC 90113 by Alamar blue method; format: functional, organism-based
Candida albicans = experiment: Antimicrobial activity against Candida albicans ATCC 90028 by Alamar blue method; format: functional, organism-based

Structure (SMILES): Fc1ccc(CSc2cc3ccccc3[n+](CCCCCC3CCCCC3)c2)cc1.[I-]
- IC50 [1]: 6.9 µg/mL
- MBC [1]: 10 µg/mL
- MIC [1]: 10 µg/mL
- IC50 (Staphylococcus aureus [2]): 0.34 µg/mL
- MBC (Staphylococcus aureus [2]): 2.5 µg/mL
- MIC (Staphylococcus aureus [2]): 0.63 µg/mL
- MBC (Staphylococcus aureus [3]): 2.5 µg/mL
- MIC (Staphylococcus aureus [3]): 0.63 µg/mL
- IC50 (Staphylococcus aureus [3]): 0.34 µg/mL
- IC50 (Nakaseomyces glabratus): 1.3 µg/mL
- MFC (Nakaseomyces glabratus): 2.5 µg/mL
- MIC (Nakaseomyces glabratus): 2.5 µg/mL
- IC50 (Pichia kudriavzevii): 0.14 µg/mL
- MFC (Pichia kudriavzevii): 0.63 µg/mL
- MIC (Pichia kudriavzevii): 0.63 µg/mL
- Activity (Vero): Non-toxic
- IC50 (Aspergillus fumigatus): 5.2 µg/mL
- MFC (Aspergillus fumigatus): 10 µg/mL
- MIC (Aspergillus fumigatus): 10 µg/mL
- MFC (Cryptococcus neoformans): 0.63 µg/mL
- MIC (Cryptococcus neoformans): 0.63 µg/mL
- IC50 (Candida albicans): 1.9 µg/mL
- MFC (Candida albicans): 5 µg/mL
- MIC (Candida albicans): 5 µg/mL

Structure (SMILES): Cc1ccccc1CSc1cc2ccccc2[n+](CCCCCC2CCCCC2)c1.[I-]
- IC50 [1]: 6.7 µg/mL
- MBC [1]: 10 µg/mL
- MIC [1]: 10 µg/mL
- IC50 (Staphylococcus aureus [2]): 0.73 µg/mL
- MBC (Staphylococcus aureus [2]): 2.5 µg/mL
- MIC (Staphylococcus aureus [2]): 1.3 µg/mL
- MBC (Staphylococcus aureus [3]): 2.5 µg/mL
- MIC (Staphylococcus aureus [3]): 0.63 µg/mL
- IC50 (Staphylococcus aureus [3]): 0.4 µg/mL
- IC50 (Nakaseomyces glabratus): 2.8 µg/mL
- MFC (Nakaseomyces glabratus): 5 µg/mL
- MIC (Nakaseomyces glabratus): 5 µg/mL
- IC50 (Pichia kudriavzevii): 0.84 µg/mL
- MFC (Pichia kudriavzevii): 2.5 µg/mL
- MIC (Pichia kudriavzevii): 2.5 µg/mL
- Activity (Vero): Non-toxic
- IC50 (Aspergillus fumigatus): 4.1 µg/mL
- MIC (Aspergillus fumigatus): 10 µg/mL
- IC50 (Cryptococcus neoformans): 0.39 µg/mL
- MIC (Cryptococcus neoformans): 0.63 µg/mL
- IC50 (Candida albicans): 1.4 µg/mL
- MIC (Candida albicans): 2.5 µg/mL

Structure (SMILES): Clc1ccccc1CSc1cc2ccccc2[n+](CCCCCC2CCCCC2)c1.[I-]
- IC50 [1]: 13 µg/mL
- MBC [1]: 20 µg/mL
- MIC [1]: 20 µg/mL
- IC50 (Staphylococcus aureus [2]): 0.74 µg/mL
- MBC (Staphylococcus aureus [2]): 5 µg/mL
- MIC (Staphylococcus aureus [2]): 1.3 µg/mL
- MBC (Staphylococcus aureus [3]): 5 µg/mL
- MIC (Staphylococcus aureus [3]): 1.3 µg/mL
- IC50 (Staphylococcus aureus [3]): 0.77 µg/mL
- IC50 (Nakaseomyces glabratus): 6 µg/mL
- MFC (Nakaseomyces glabratus): 10 µg/mL
- MIC (Nakaseomyces glabratus): 10 µg/mL
- IC50 (Pichia kudriavzevii): 0.34 µg/mL
- MFC (Pichia kudriavzevii): 2.5 µg/mL
- MIC (Pichia kudriavzevii): 2.5 µg/mL
- Activity (Vero): Non-toxic
- IC50 (Aspergillus fumigatus): 17 µg/mL
- MFC (Aspergillus fumigatus): 20 µg/mL
- MIC (Aspergillus fumigatus): 20 µg/mL
- IC50 (Cryptococcus neoformans): 1.5 µg/mL
- MFC (Cryptococcus neoformans): 5 µg/mL
- MIC (Cryptococcus neoformans): 2.5 µg/mL
- IC50 (Candida albicans): 5.6 µg/mL
- MFC (Candida albicans): 20 µg/mL
- MIC (Candida albicans): 10 µg/mL

Structure (SMILES): COc1cccc(CSc2cc3ccccc3[n+](CCCCCC3CCCCC3)c2)c1.[I-]
- IC50 [1]: 3.7 µg/mL
- MBC [1]: 5 µg/mL
- MIC [1]: 5 µg/mL
- IC50 (Staphylococcus aureus [2]): 0.33 µg/mL
- MBC (Staphylococcus aureus [2]): 1.3 µg/mL
- MIC (Staphylococcus aureus [2]): 0.63 µg/mL
- MBC (Staphylococcus aureus [3]): 1.3 µg/mL
- MIC (Staphylococcus aureus [3]): 0.63 µg/mL
- IC50 (Staphylococcus aureus [3]): 0.28 µg/mL
- IC50 (Nakaseomyces glabratus): 9.7 µg/mL
- MFC (Nakaseomyces glabratus): 20 µg/mL
- MIC (Nakaseomyces glabratus): 20 µg/mL
- IC50 (Pichia kudriavzevii): 0.88 µg/mL
- MFC (Pichia kudriavzevii): 2.5 µg/mL
- MIC (Pichia kudriavzevii): 2.5 µg/mL
- Activity (Vero): Non-toxic
- IC50 (Aspergillus fumigatus): 10.9 µg/mL
- MFC (Aspergillus fumigatus): > 20 µg/mL
- MIC (Aspergillus fumigatus): 20 µg/mL
- IC50 (Cryptococcus neoformans): 0.35 µg/mL
- MFC (Cryptococcus neoformans): 2.5 µg/mL
- MIC (Cryptococcus neoformans): 0.63 µg/mL
- IC50 (Candida albicans): 4.8 µg/mL
- MFC (Candida albicans): 10 µg/mL
- MIC (Candida albicans): 10 µg/mL

Structure (SMILES): Cc1cc(C)c(CSc2cc3ccccc3[n+](CCCCCC3CCCCC3)c2)c(C)c1.[I-]
- IC50 [1]: 2.9 µg/mL
- MBC [1]: 5 µg/mL
- MIC [1]: 5 µg/mL
- IC50 (Staphylococcus aureus [2]): 0.23 µg/mL
- MBC (Staphylococcus aureus [2]): 0.63 µg/mL
- MIC (Staphylococcus aureus [2]): 0.63 µg/mL
- MBC (Staphylococcus aureus [3]): 1.3 µg/mL
- MIC (Staphylococcus aureus [3]): 0.63 µg/mL
- IC50 (Staphylococcus aureus [3]): 0.34 µg/mL
- IC50 (Nakaseomyces glabratus): 1.7 µg/mL
- MFC (Nakaseomyces glabratus): 5 µg/mL
- MIC (Nakaseomyces glabratus): 5 µg/mL
- IC50 (Pichia kudriavzevii): 0.44 µg/mL
- MFC (Pichia kudriavzevii): 0.63 µg/mL
- MIC (Pichia kudriavzevii): 0.63 µg/mL
- Activity (Vero): Non-toxic
- IC50 (Aspergillus fumigatus): 2.3 µg/mL
- MFC (Aspergillus fumigatus): 5 µg/mL
- MIC (Aspergillus fumigatus): 5 µg/mL
- IC50 (Cryptococcus neoformans): 0.32 µg/mL
- MFC (Cryptococcus neoformans): 0.63 µg/mL
- MIC (Cryptococcus neoformans): 0.63 µg/mL
- IC50 (Candida albicans): > 20 µg/mL
- MFC (Candida albicans): > 20 µg/mL
- MIC (Candida albicans): > 20 µg/mL

Structure (SMILES): Brc1cccc(CSc2cc3ccccc3[n+](CCCCCC3CCCCC3)c2)c1.[I-]
- IC50 [1]: 3.2 µg/mL
- MBC [1]: 5 µg/mL
- MIC [1]: 5 µg/mL
- IC50 (Staphylococcus aureus [2]): 0.21 µg/mL
- MBC (Staphylococcus aureus [2]): 0.63 µg/mL
- MIC (Staphylococcus aureus [2]): 0.31 µg/mL
- MBC (Staphylococcus aureus [3]): 0.63 µg/mL
- MIC (Staphylococcus aureus [3]): 0.63 µg/mL
- IC50 (Staphylococcus aureus [3]): 0.42 µg/mL
- IC50 (Nakaseomyces glabratus): 1.4 µg/mL
- MFC (Nakaseomyces glabratus): 2.5 µg/mL
- MIC (Nakaseomyces glabratus): 2.5 µg/mL
- IC50 (Pichia kudriavzevii): 0.4 µg/mL
- MFC (Pichia kudriavzevii): 0.63 µg/mL
- MIC (Pichia kudriavzevii): 0.63 µg/mL
- Activity (Vero): Non-toxic
- IC50 (Aspergillus fumigatus): 4.8 µg/mL
- MFC (Aspergillus fumigatus): 10 µg/mL
- MIC (Aspergillus fumigatus): 10 µg/mL
- IC50 (Cryptococcus neoformans): 0.56 µg/mL
- MFC (Cryptococcus neoformans): 1.3 µg/mL
- MIC (Cryptococcus neoformans): 0.63 µg/mL
- IC50 (Candida albicans): 2.6 µg/mL
- MFC (Candida albicans): 5 µg/mL
- MIC (Candida albicans): 5 µg/mL

Structure (SMILES): Fc1cccc(CSc2cc3ccccc3[n+](CCCCCC3CCCCC3)c2)c1.[I-]
- IC50 [1]: 6.5 µg/mL
- MBC [1]: 10 µg/mL
- MIC [1]: 10 µg/mL
- IC50 (Staphylococcus aureus [2]): 0.37 µg/mL
- MBC (Staphylococcus aureus [2]): 1.3 µg/mL
- MIC (Staphylococcus aureus [2]): 0.63 µg/mL
- MBC (Staphylococcus aureus [3]): 1.3 µg/mL
- MIC (Staphylococcus aureus [3]): 0.63 µg/mL
- IC50 (Staphylococcus aureus [3]): 0.44 µg/mL
- IC50 (Nakaseomyces glabratus): 2.6 µg/mL
- MFC (Nakaseomyces glabratus): 5 µg/mL
- MIC (Nakaseomyces glabratus): 5 µg/mL
- IC50 (Pichia kudriavzevii): 0.49 µg/mL
- MFC (Pichia kudriavzevii): 1.3 µg/mL
- MIC (Pichia kudriavzevii): 1.3 µg/mL
- Activity (Vero): Non-toxic
- IC50 (Aspergillus fumigatus): 5.6 µg/mL
- MFC (Aspergillus fumigatus): 20 µg/mL
- MIC (Aspergillus fumigatus): 10 µg/mL
- MFC (Cryptococcus neoformans): 0.63 µg/mL
- MIC (Cryptococcus neoformans): 0.63 µg/mL
- IC50 (Candida albicans): 1.8 µg/mL
- MFC (Candida albicans): 5 µg/mL
- MIC (Candida albicans): 5 µg/mL

Structure (SMILES): COc1ccc(CSc2cc3ccccc3[n+](CCCCCC3CCCCC3)c2)cc1.[I-]
- IC50 [1]: 1.7 µg/mL
- MBC [1]: 2.5 µg/mL
- MIC [1]: 2.5 µg/mL
- IC50 (Staphylococcus aureus [2]): 0.36 µg/mL
- MBC (Staphylococcus aureus [2]): 2.5 µg/mL
- MIC (Staphylococcus aureus [2]): 0.63 µg/mL
- MBC (Staphylococcus aureus [3]): 2.5 µg/mL
- MIC (Staphylococcus aureus [3]): 0.31 µg/mL
- IC50 (Staphylococcus aureus [3]): 0.18 µg/mL
- IC50 (Nakaseomyces glabratus): 3 µg/mL
- MFC (Nakaseomyces glabratus): 10 µg/mL
- MIC (Nakaseomyces glabratus): 10 µg/mL
- IC50 (Pichia kudriavzevii): 0.37 µg/mL
- MFC (Pichia kudriavzevii): 1.3 µg/mL
- MIC (Pichia kudriavzevii): 0.63 µg/mL
- Activity (Vero): Non-toxic
- IC50 (Aspergillus fumigatus): 5.4 µg/mL
- MFC (Aspergillus fumigatus): 10 µg/mL
- MIC (Aspergillus fumigatus): 10 µg/mL
- IC50 (Cryptococcus neoformans): 0.18 µg/mL
- MFC (Cryptococcus neoformans): 0.63 µg/mL
- MIC (Cryptococcus neoformans): 0.31 µg/mL
- IC50 (Candida albicans): 1.2 µg/mL
- MFC (Candida albicans): 5 µg/mL
- MIC (Candida albicans): 5 µg/mL

Structure (SMILES): COc1ccccc1CSc1cc2ccccc2[n+](CCCCCC2CCCCC2)c1.[I-]
- IC50 [1]: 3 µg/mL
- MBC [1]: 5 µg/mL
- MIC [1]: 5 µg/mL
- IC50 (Staphylococcus aureus [2]): 0.35 µg/mL
- MBC (Staphylococcus aureus [2]): 5 µg/mL
- MIC (Staphylococcus aureus [2]): 0.63 µg/mL
- MBC (Staphylococcus aureus [3]): 5 µg/mL
- MIC (Staphylococcus aureus [3]): 0.63 µg/mL
- IC50 (Staphylococcus aureus [3]): 0.31 µg/mL
- IC50 (Nakaseomyces glabratus): 8.2 µg/mL
- MFC (Nakaseomyces glabratus): 20 µg/mL
- MIC (Nakaseomyces glabratus): 20 µg/mL
- IC50 (Pichia kudriavzevii): 0.75 µg/mL
- MFC (Pichia kudriavzevii): 2.5 µg/mL
- MIC (Pichia kudriavzevii): 2.5 µg/mL
- Activity (Vero): Non-toxic
- IC50 (Aspergillus fumigatus): 9.8 µg/mL
- MFC (Aspergillus fumigatus): > 20 µg/mL
- MIC (Aspergillus fumigatus): 20 µg/mL
- IC50 (Cryptococcus neoformans): 0.34 µg/mL
- MFC (Cryptococcus neoformans): 2.5 µg/mL
- MIC (Cryptococcus neoformans): 0.63 µg/mL
- IC50 (Candida albicans): 2.8 µg/mL
- MFC (Candida albicans): 5 µg/mL
- MIC (Candida albicans): 5 µg/mL
